Measurements taken from patent publication US6903101B1, “Substituted pyridazines and fused pyridazines with angiogenesis inhibiting activity” (Bayer Pharmaceuticals Corporation, priority 2000, dated 2005).
Where a name gives a salt, the structure may show the parent alone.

How the values were obtained:
[1] = molecular target: T1, full length KDR receptor in NIH3T3 cells (Homo sapiens, UniProt P35968); test: Cell mechanistic assay - Inhibition of 3T3 KDR phosphorylation; assay type: cell-based; settings: NIH3T3 cells expressing KDR, VEGF (30 ng/ml) stimulation, receptor phosphotyrosine ELISA
T1 construct: NIH3T3 cells expressing the full length KDR receptor were grown in DMEM; expressed in transfected cells; host or cells: NIH3T3 cells (G418 selection)
Method: Cell mechanistic assay-Inhibition of 3T3 KDR phosphorylation:
NIH3T3 cells expressing the full length KDR receptor were grown in DMEM (Life Technologies, Inc., Grand Island, N.Y.) supplemented with 10% newborn calf serum, low glucose, 25 mM/L sodium pyruvate, pyridoxine hydrochloride and 0.2 mg/ml of G418 (Life Technologies Inc., Grand Island, N.Y.). The cells were maintained in collagen I-coated T75 flasks (Becton Dickinson Labware, Bedford, Mass.) in a humidified 5% CO2 atmosphere at 37° C.
Fifteen thousand cells were plated into each well of a collagen I-coated 96-well plate in the DMEM growth medium. Six hours later, the cells were washed and the medium was replaced with DMEM without serum. […]
To assess receptor phosphorylation, 100 microliters of each cell lysate was added to the wells of an ELISA plate precoated with 300 ng of antibody C20 (Santa Cruz Biotechnology, Inc., Santa Cruz, Calif.). […] Wells were washed and phosphotyrosine was quantitated by addtion of 100 μl per well of 3,3′,5,5′ tetramethylbenzidine (Kirkegaard and Perry, TMB Microwell 1 Component peroxidase substrate) solution. […]
Optical densities (OD) were determined spectrophotometrically at 450 nm in a 96-well plate reader (SpectraMax 250, Molecular Devices). Background (no VEGF added) OD values were subtracted from all ODs and percent inhibition was calculated according to the equation: [formula] […]

KDR kinase domain = molecular target: T2, KDR kinase domain (Homo sapiens, UniProt P35968); test: KDR Assay (kinase ELISA, poly(Glu4;Tyr1) phosphorylation); assay type: biochemical; settings: 3.3 μM ATP, 60 minutes room temperature
T2 construct: The cytosolic kinase domain of KDR kinase was expressed as a 6 His fusion protein in Sf9 insect cells; 6 His; made in house; host or cells: Sf9 insect cells
Method: The cytosolic kinase domain of KDR kinase was expressed as a 6 His fusion protein in Sf9 insect cells. The KDR kinase domain fusion protein was purified over a Ni++chelating column. Ninety-six well ELISA plates were coated with 5 μg poly(Glu4;Tyr1) (Sigma Chemical Co., St Louis, Mo.) in 100 μl HEPES buffer (20 mM HEPES, pH 7.5, 150 mM NaCl, 0.02% Thimerosal) at 4° overnight. Before use, the plate was washed with HEPES, NaCl buffer and the plates were blocked with 1% BSA, 0.1% Tween 20 in HEPES, NaCl buffer.
Test compounds were serially diluted in 100% DMSO from 4 mM to 0.12 μM in half-log dilutions. These dilutions were further diluted twenty fold in H2O to obtain compound solutions in 5% DMSO. […]
The assay was incubated with test compound or vehicle alone with gentle agitation at room temperature for 60 minutes. […] PY/anti-PY complexes were detected with an anti-mouse IgG/HRP conjugate (Amershamn International plc, Buckinghamshire, England). Phosphotyrosine was quantitated by incubating with 100 μl 3, 3′, 5, 5′ tetramethylbenzidine solution (Kirkegaard and Perry, TMB Microwell 1 Component peroxidase substrate). […]
Optical densities were determined spectrophotometrically at 450 nm in a 96-well plate reader, SpectraMax 250 (Molecular Devices). Background (no ATP in assay) OD values were subtracted from all ODs and the percent inhibition was calculated according to the equation: [formula] […]

T2 sequence (P35968 834-1162 limits assumed): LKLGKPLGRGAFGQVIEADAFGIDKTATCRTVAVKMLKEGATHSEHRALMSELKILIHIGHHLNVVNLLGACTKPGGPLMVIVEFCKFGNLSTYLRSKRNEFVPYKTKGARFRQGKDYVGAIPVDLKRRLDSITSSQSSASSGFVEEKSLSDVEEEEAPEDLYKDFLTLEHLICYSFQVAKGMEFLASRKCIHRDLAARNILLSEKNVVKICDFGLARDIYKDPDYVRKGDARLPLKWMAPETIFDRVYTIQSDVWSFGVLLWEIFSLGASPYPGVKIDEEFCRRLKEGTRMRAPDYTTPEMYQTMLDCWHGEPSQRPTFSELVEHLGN
T1 sequence (P35968 20-1356): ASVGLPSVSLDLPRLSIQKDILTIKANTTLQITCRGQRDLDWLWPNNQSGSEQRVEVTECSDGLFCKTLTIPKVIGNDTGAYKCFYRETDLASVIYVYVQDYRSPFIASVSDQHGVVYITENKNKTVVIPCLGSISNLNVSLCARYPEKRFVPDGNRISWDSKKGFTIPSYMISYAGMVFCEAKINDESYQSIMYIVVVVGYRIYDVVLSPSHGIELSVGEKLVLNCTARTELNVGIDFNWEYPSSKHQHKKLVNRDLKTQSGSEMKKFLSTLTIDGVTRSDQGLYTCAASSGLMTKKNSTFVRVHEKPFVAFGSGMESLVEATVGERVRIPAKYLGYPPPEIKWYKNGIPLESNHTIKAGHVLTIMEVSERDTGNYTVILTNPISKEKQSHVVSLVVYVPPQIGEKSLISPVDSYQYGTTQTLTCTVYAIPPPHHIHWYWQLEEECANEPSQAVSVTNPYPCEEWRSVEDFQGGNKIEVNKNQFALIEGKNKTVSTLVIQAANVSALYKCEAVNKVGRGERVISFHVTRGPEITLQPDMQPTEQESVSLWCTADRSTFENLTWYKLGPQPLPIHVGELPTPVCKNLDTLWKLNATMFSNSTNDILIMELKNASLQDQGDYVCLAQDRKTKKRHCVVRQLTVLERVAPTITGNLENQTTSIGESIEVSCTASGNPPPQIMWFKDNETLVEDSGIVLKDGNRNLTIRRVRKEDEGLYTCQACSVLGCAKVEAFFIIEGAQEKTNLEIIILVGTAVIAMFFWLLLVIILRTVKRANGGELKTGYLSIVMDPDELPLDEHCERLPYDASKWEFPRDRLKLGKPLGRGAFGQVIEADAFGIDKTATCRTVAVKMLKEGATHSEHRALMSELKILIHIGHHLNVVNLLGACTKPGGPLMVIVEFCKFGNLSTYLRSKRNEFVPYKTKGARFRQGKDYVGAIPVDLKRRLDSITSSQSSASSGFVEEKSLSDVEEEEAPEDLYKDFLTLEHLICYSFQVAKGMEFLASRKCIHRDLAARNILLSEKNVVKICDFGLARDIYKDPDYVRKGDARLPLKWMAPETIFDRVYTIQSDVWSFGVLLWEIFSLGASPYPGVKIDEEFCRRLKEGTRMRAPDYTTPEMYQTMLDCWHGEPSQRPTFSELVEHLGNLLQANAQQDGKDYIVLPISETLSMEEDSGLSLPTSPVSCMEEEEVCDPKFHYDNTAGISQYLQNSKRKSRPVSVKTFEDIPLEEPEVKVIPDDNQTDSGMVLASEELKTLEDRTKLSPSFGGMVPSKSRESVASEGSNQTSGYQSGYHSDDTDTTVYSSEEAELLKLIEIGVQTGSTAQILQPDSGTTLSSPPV

| SMILES | melting point | IC50 [1] [nM] | IC50 (KDR kinase domain) [nM] |
| --- | --- | --- | --- |
| CNC(=O)c1cc(Cc2nnc(Nc3ccc(Cl)cc3)c3ccccc23)ccn1 (as salt: methanesulfonate) [Example 12, 4-[4-(4-Chlorophenylamino)phthalazin-1-ylmethyl]pyridin-2-yl carboxylic acid methylamide dimethanesulfonate] | 245 to 249 °C |  |  |
| NC(=O)c1cc(COc2nnc(Nc3ccc(Cl)cc3)c3ccccc23)ccn1 (as salt: hydrochloride) [Example 15, 4-[4-(4-Chlorophenylamino)phthalazin-1-yloxymethyl]pyridin-2-yl carboxylic acid amide dihydrochloride] | 143 to 145.2 °C |  |  |
| NC(=O)c1cc(Cc2nnc(Nc3ccc(Cl)cc3)c3ccccc23)ccn1 (as salt: methanesulfonate) [Example 14, 4-[4-(4-Chlorophenylamino)phthalazin-1-ylmethyl]pyridin-2-yl carboxylic acid amide dimethanesulfonate] | 156 to 161 °C |  |  |
| Cl.Cl.NC(=O)c1cc(Cc2nnc(Nc3ccc(Cl)cc3)c3ccccc23)ccn1 [Example 13, 4-[4-(4-Chlorophenylamino)phthalazin-1-ylmethyl]pyridin-2-yl carboxylic acid amide dihydrochloride] | 180 to 198 °C |  |  |
| Clc1ccc(Nc2ccc(OCc3ccncc3)nn2)cc1 [Example 21] |  | > 50 | > 1000 |
| c1ccc2c(Nc3ccc4ncsc4c3)nnc(Cc3ccncc3)c2c1 [Example 23] | 163 to 164 °C |  |  |
| CNC(=O)c1cc(Cc2nnc(Nc3ccc(Cl)cc3)c3ccccc23)ccn1 (as salt: hydrochloride) [Example 11, 4-[4-(4-Chlorophenylamino)phthalazin-1-ylmethyl]pyridin-2-yl carboxylic acid methylamide dihydrochloride] | 255 °C (dec.) |  |  |
| NC(=O)c1cc(COc2nnc(Nc3ccc(Cl)cc3)c3ccccc23)ccn1 (as salt: methanesulfonate) [Example 16, 4-[4-(4-Chlorophenylamino)phthalazin-1-yloxymethyl]pyridin-2-yl carboxylic acid amide dimethanesulfonate] | 75 to 80 °C |  |  |
| N#CC(c1ccncc1)c1nnc(Nc2ccc3c(c2)CCC3)c2ccccc12 (stereo not shown) [Example 22, 1-(indan-5-ylamino)-4-(4-pyridylcyanomethyl)phthalazine] | 122 to 123 °C |  |  |
